According to patent publication US20130310407A1, “COMBINATIONS COMPRISING MACITENTAN FOR THE TREATMENT OF GLIOBLASTOMA MULTIFORME” (ACTELION PHARMACEUTICALS LTD., priority 2011, published 2013):

Tests used:
[1] = tested on: phosphorylated AKT and MAPK; assay: Immunohistochemistry of tumors using antibodies against phosphorylated AKT and MAPK; assay type: in vivo, mice; conditions: tumors of treated animals, Examples 1 and 2 (macitentan) and Example 3 (atrasentan, zibotentan)
Source text: Suppression of survival and proliferation pathways sensitizes cells to chemotherapy and could be the reason for the high effectiveness of macitentan in combination with chemotherapy.

[2] = tested on: LN229 human glioblastoma cells; assay: LN229 human glioblastoma cells stereotactically injected into nude mice brain: treatment with macitentan and paclitaxel (Example 2); assay type: in vivo; conditions: nude mice with intracerebral LN229, paclitaxel 8.5 mg/kg intraperitoneal weekly, macitentan 10 mg/kg oral daily
Method: (§1) Forty-eight (48) female Swiss Nude mice were obtained from Charles River (France). […] Animal experiments were performed according to the European ethical guidelines of animal experimentation.

[3] = tested on: LN229 human glioblastoma cells; assay: LN229 human glioblastoma cells stereotactically injected into nude mice brain: treatment with macitentan and temozolomide (Example 1); assay type: in vivo; conditions: nude mice with intracerebral LN229; treatment from two weeks after injection; temozolomide 7.5 mg/kg oral daily one week on/two weeks off; macitentan 10 mg/kg oral daily; day 100
Method: as §1
The mice were monitored daily and euthanized when they developed neurologic symptoms or became moribund. Days of survival were recorded and brain tissues were harvested and processed for histologic examinations. The experiment was terminated on day 100.

## CCCCN(CCCC)C(=O)CN1C[C@H](c2ccc3c(c2)OCO3)[C@@H](C(=O)O)[C@@H]1c1ccc(OC)cc1 [Atrasentan, atrasentan]
[1]
  reduction of phosphorylated AKT and MAPK in tumors (immunohistochemistry): much less prominent

## CC(=O)O[C@H]1C(=O)[C@@]2(C)[C@H]([C@H](OC(=O)c3ccccc3)[C@]3(O)C[C@H](OC(=O)[C@H](O)[C@@H](NC(=O)c4ccccc4)c4ccccc4)C(C)=C1C3(C)C)[C@]1(OC(C)=O)CO[C@@H]1C[C@@H]2O [PTL, paclitaxel]
[2]
  survival after 70 days: about 60%

## Cn1nnc2c(C(N)=O)ncn2c1=O [TMZ, temozolomide]
[3]
  survival rate after 100 days: about 40%

## COc1nc(C)cnc1NS(=O)(=O)c1cccnc1-c1ccc(-c2nnco2)cc1 [Zibotentan, zibotentan]
[1]
  reduction of phosphorylated AKT and MAPK in tumors (immunohistochemistry): much less prominent

## CCCNS(=O)(=O)Nc1ncnc(OCCOc2ncc(Br)cn2)c1-c1ccc(Br)cc1 [macitentan]
[1]
  reduction of phosphorylated AKT and MAPK in tumors (immunohistochemistry): strong reduction of both proteins
[2]
  survival after 70 days: about 60%
[3]
  survival rate after 100 days: about 40%
